Measurements from the supplement of paper PMC13380429.

Key:
[1] = tested on: A549-ACE2 infected with SARS-CoV-2; experiment: cell count relative to DMSO; higher = less toxic; settings: 24 h
[2] = tested on: Caco-2; experiment: cell viability relative to DMSO; higher = less toxic; settings: 72 h
[3] = tested on: Calu-3; experiment: as above; settings: 72 h
[4] = tested on: HepG2; experiment: as above; settings: 72 h
[5] = tested on: U2OS; experiment: as above; settings: 72 h
[6] = tested on: Vero E6; experiment: as above; settings: 72 h
[7] = tested on: A549-ACE2 infected with SARS-CoV-2; experiment: SARS-CoV-2 infection rate relative to DMSO; higher = more infection; settings: 24 h
[8] = tested on: A549-ACE2; experiment: drug-induced phospholipidosis relative to tamoxifen; higher = more phospholipidosis
[9] = tested on: A549-ACE2 infected with SARS-CoV-2; experiment: morphology score (similarity to uninfected cells); higher = more like uninfected cells; settings: 24 h
[10] = tested on: Calu-3; experiment: relative viability EC50 (midpoint between 100% and the lowest measured viability); higher = less toxic; settings: 72 h
[11] = tested on: Vero E6; experiment: as above; settings: 72 h
[12] = tested on: Caco-2; experiment: drug sensitivity score (DSS) for viability; higher = more toxic; extreme values may be limits of the assay; settings: 72 h
[13] = tested on: Calu-3; experiment: as above; settings: 72 h
[14] = tested on: HepG2; experiment: as above; settings: 72 h
[15] = tested on: U2OS; experiment: as above; settings: 72 h
[16] = tested on: Vero E6; experiment: as above; settings: 72 h
[17] = tested on: A549-ACE2; experiment: phospholipidosis EC50; higher = less potent phospholipidosis inducer
[18] = tested on: Caco-2; experiment: relative viability EC50 (midpoint between 100% and the lowest measured viability); higher = less toxic; settings: 72 h
[19] = tested on: HepG2; experiment: as above; settings: 72 h
[20] = tested on: U2OS; experiment: as above; settings: 72 h

CNC(=O)c1ccccc1Sc1ccc2c(/C=C/c3ccccn3)n[nH]c2c1 [axitinib]
Settings	SARS-CoV-2 infection rate, [7] [%]	cell count, [1] [%]	cell viability, [2] [%]	cell viability, [3] [%]	cell viability, [4] [%]	cell viability, [5] [%]	cell viability, [6] [%]	morphology score, [9]
1 nM	–	–	97.2	108	111	102	114	–
10 nM	–	–	108	102	97.7	104	106	–
100 nM	–	–	92	93.6	108	103	108	–
0.3 µM	92	105	–	–	–	–	–	0.34
1000 nM	–	–	97.8	86.7	92.2	105	101	–
3 µM	98	75	–	–	–	–	–	0.32
10 µM	96	77	–	–	–	–	–	0.35
10000 nM	–	–	72.5	81	71.8	74	94.2	–
30 µM	91	68	–	–	–	–	–	0.49

drug-induced phospholipidosis [%], [8]
Settings	0.3 µM	0.833333 µM	3.33333 µM	6.66667 µM	10 µM	30 µM
24 h	2.86	4.48	16.8	10.3	7.44	17.1
48 h	1.43	3.96	7.83	7.9	8.63	15.9
72 h	4.56	4.58	–	–	–	–

Settings	drug sensitivity score	relative viability EC50 [nM]
[10]	–	> 10000
[11]	–	> 10000
[12]	1.5	–
[13]	1.7	–
[14]	2.3	–
[15]	0.8	–
[16]	0	–

CCCCCCCCNC(C)C(O)c1ccc(SC(C)C)cc1 (stereo not given) [suloctidil]
Settings	SARS-CoV-2 infection rate [%]	cell count [%]	cell viability [%]	morphology score	phospholipidosis EC50 [nM]
[1], 0.3 µM	–	102	–	–	–
[1], 3 µM	–	112	–	–	–
[1], 10 µM	–	122	–	–	–
[1], 30 µM	–	65	–	–	–
[2], 1 nM	–	–	105	–	–
[2], 10 nM	–	–	97.3	–	–
[2], 100 nM	–	–	99.4	–	–
[2], 1000 nM	–	–	101	–	–
[2], 10000 nM	–	–	92.6	–	–
[3], 1 nM	–	–	99.4	–	–
[3], 10 nM	–	–	97.1	–	–
[3], 100 nM	–	–	107	–	–
[3], 1000 nM	–	–	57	–	–
[3], 10000 nM	–	–	-0.5	–	–
[4], 1 nM	–	–	98.7	–	–
[4], 10 nM	–	–	109	–	–
[4], 100 nM	–	–	98.5	–	–
[4], 1000 nM	–	–	119	–	–
[4], 10000 nM	–	–	102	–	–
[5], 1 nM	–	–	98.2	–	–
[5], 10 nM	–	–	95	–	–
[5], 100 nM	–	–	99.7	–	–
[5], 1000 nM	–	–	95.5	–	–
[5], 10000 nM	–	–	64.5	–	–
[6], 1 nM	–	–	93.8	–	–
[6], 10 nM	–	–	98.3	–	–
[6], 100 nM	–	–	93	–	–
[6], 1000 nM	–	–	98.3	–	–
[6], 10000 nM	–	–	97.4	–	–
[7], 0.3 µM	99	–	–	–	–
[7], 3 µM	83	–	–	–	–
[7], 10 µM	26	–	–	–	–
[7], 30 µM	25	–	–	–	–
[9], 0.3 µM	–	–	–	0.02	–
[9], 3 µM	–	–	–	0.31	–
[9], 10 µM	–	–	–	0.74	–
[9], 30 µM	–	–	–	0.13	–
[17], 24 h	–	–	–	–	7110
[17], 48 h	–	–	–	–	9120
[17], 72 h	–	–	–	–	12500

drug-induced phospholipidosis [%], [8]
Settings	0.3 µM	0.833333 µM	3.33333 µM	6.66667 µM	10 µM	30 µM
24 h	2.27	1.81	10.5	42.2	60	84.3
48 h	4.05	0.83	9.1	35.5	57	95.6
72 h	3.93	-1.43	8.76	31.3	53.9	114

Settings	drug sensitivity score	relative viability EC50 [nM]
[10]	–	1120
[11]	–	> 10000
[12]	0	–
[13]	11.1	–
[14]	0	–
[15]	2.4	–
[16]	0	–
[18]	–	> 10000
[19]	–	> 10000

O=S(=O)(NCC1CC1)c1ccc(Nc2nccc(N3CCCc4cc(O)ccc43)n2)cc1 [pyrintegrin]
Settings	SARS-CoV-2 infection rate [%]	cell count [%]	cell viability [%]	morphology score	phospholipidosis EC50 [nM]
[1], 0.1 µM	–	104	–	–	–
[1], 0.3 µM	–	106	–	–	–
[1], 1 µM	–	107	–	–	–
[1], 3 µM	–	86	–	–	–
[2], 1 nM	–	–	98.1	–	–
[2], 10 nM	–	–	102	–	–
[2], 100 nM	–	–	100	–	–
[2], 1000 nM	–	–	110	–	–
[2], 10000 nM	–	–	86.2	–	–
[3], 1 nM	–	–	95.5	–	–
[3], 10 nM	–	–	89.7	–	–
[3], 100 nM	–	–	92.8	–	–
[3], 1000 nM	–	–	102	–	–
[3], 10000 nM	–	–	85	–	–
[4], 1 nM	–	–	102	–	–
[4], 10 nM	–	–	103	–	–
[4], 100 nM	–	–	107	–	–
[4], 1000 nM	–	–	66.6	–	–
[4], 10000 nM	–	–	15.5	–	–
[5], 1 nM	–	–	99	–	–
[5], 10 nM	–	–	97	–	–
[5], 100 nM	–	–	97.8	–	–
[5], 1000 nM	–	–	96	–	–
[5], 10000 nM	–	–	62.4	–	–
[6], 1 nM	–	–	90.5	–	–
[6], 10 nM	–	–	93.9	–	–
[6], 100 nM	–	–	98.9	–	–
[6], 1000 nM	–	–	98.3	–	–
[6], 10000 nM	–	–	75.3	–	–
[7], 0.1 µM	104	–	–	–	–
[7], 0.3 µM	103	–	–	–	–
[7], 1 µM	81	–	–	–	–
[7], 3 µM	60	–	–	–	–
[9], 0.1 µM	–	–	–	0.18	–
[9], 0.3 µM	–	–	–	0.28	–
[9], 1 µM	–	–	–	0.52	–
[9], 3 µM	–	–	–	0.4	–
[17], 24 h	–	–	–	–	1910

drug-induced phospholipidosis [%], [8]
Settings	0.3 µM	0.833333 µM	3.33333 µM	6.66667 µM	10 µM
24 h	5.15	22.5	132	178	150
48 h	3.16	12.3	135	–	–
72 h	2.43	7.41	–	–	–

Settings	drug sensitivity score	relative viability EC50 [nM]
[10]	–	> 10000
[11]	–	> 10000
[12]	0	–
[13]	0.1	–
[14]	9.2	–
[15]	2.5	–
[16]	1.2	–
[18]	–	> 10000
[19]	–	1190

CCN(CC)CCCC(C)Nc1c2ccc(Cl)cc2nc2ccc(OC)cc12 (stereo not given) [mepacrine]
Settings	morphology score, 0.1 µM	morphology score, 0.3 µM	morphology score, 1 µM	morphology score, 3 µM	phospholipidosis EC50, 24 h [nM]	phospholipidosis EC50, 48 h [nM]	phospholipidosis EC50, 72 h [nM]
[9]	0.52	0.52	0.63	0.79	–	–	–
[17]	–	–	–	–	15800	5620	3000

Settings	drug sensitivity score
[13]	5.7
[14]	8.9
[15]	4
[16]	7.2

C[C@@H](Oc1cc(-n2cnc3ccc(CN4CCN(C)CC4)cc32)sc1C(N)=O)c1ccccc1C(F)(F)F
Settings	SARS-CoV-2 infection rate [%]	cell count [%]	cell viability [%]	morphology score	phospholipidosis EC50 [nM]
[1], 0.1 µM	–	60	–	–	–
[1], 0.3 µM	–	55	–	–	–
[1], 1 µM	–	61	–	–	–
[1], 3 µM	–	62	–	–	–
[2], 1 nM	–	–	96.8	–	–
[2], 10 nM	–	–	95.2	–	–
[2], 100 nM	–	–	67.2	–	–
[2], 1000 nM	–	–	62.7	–	–
[2], 10000 nM	–	–	68.5	–	–
[3], 1 nM	–	–	105	–	–
[3], 10 nM	–	–	86.9	–	–
[3], 100 nM	–	–	84.5	–	–
[3], 1000 nM	–	–	84.8	–	–
[3], 10000 nM	–	–	36.1	–	–
[4], 1 nM	–	–	98.2	–	–
[4], 10 nM	–	–	101	–	–
[4], 100 nM	–	–	23.9	–	–
[4], 1000 nM	–	–	19.4	–	–
[4], 10000 nM	–	–	8	–	–
[5], 1 nM	–	–	104	–	–
[5], 10 nM	–	–	101	–	–
[5], 100 nM	–	–	67.9	–	–
[5], 1000 nM	–	–	51.8	–	–
[5], 10000 nM	–	–	48.8	–	–
[6], 1 nM	–	–	101	–	–
[6], 10 nM	–	–	104	–	–
[6], 100 nM	–	–	77.2	–	–
[6], 1000 nM	–	–	64.6	–	–
[6], 10000 nM	–	–	36	–	–
[7], 0.1 µM	104	–	–	–	–
[7], 0.3 µM	101	–	–	–	–
[7], 1 µM	103	–	–	–	–
[7], 3 µM	36	–	–	–	–
[9], 0.1 µM	–	–	–	0.01	–
[9], 0.3 µM	–	–	–	0.06	–
[9], 1 µM	–	–	–	0.19	–
[9], 3 µM	–	–	–	0.65	–
[17], 24 h	–	–	–	–	2900

[8], 24 h
Settings	drug-induced phospholipidosis [%]
0.3 µM	14.3
0.833333 µM	26.9
3.33333 µM	156
6.66667 µM	198
10 µM	260
30 µM	246

Settings	drug sensitivity score	relative viability EC50 [nM]
[10]	–	1730
[11]	–	444
[12]	11.1	–
[13]	5.5	–
[14]	25.5	–
[15]	13.3	–
[16]	9.3	–
[19]	–	54
[20]	–	80.4

O=C1NC(=O)C(c2cnc3ccccn23)=C1c1cn2c3c(cc(F)cc13)CN(C(=O)N1CCCCC1)CC2
Settings	SARS-CoV-2 infection rate, [7] [%]	cell count, [1] [%]	cell viability, [2] [%]	cell viability, [3] [%]	cell viability, [4] [%]	cell viability, [5] [%]	cell viability, [6] [%]	morphology score, [9]
1 nM	–	–	104	101	121	108	105	–
10 nM	–	–	109	111	113	112	105	–
100 nM	–	–	87.3	80	109	99.5	95.9	–
0.3 µM	114	79	–	–	–	–	–	-0.23
1000 nM	–	–	70.5	68.1	94	94.2	66.1	–
3 µM	108	75	–	–	–	–	–	-0.14
10 µM	92	72	–	–	–	–	–	-0.05
10000 nM	–	–	47.3	61	56.7	80.3	77.9	–
30 µM	49	50	–	–	–	–	–	0.41

[8], 24 h
Settings	drug-induced phospholipidosis [%]
0.3 µM	-5.51
0.833333 µM	-3
3.33333 µM	-2.04
6.66667 µM	-0.59
10 µM	12.5

Settings	drug sensitivity score	relative viability EC50 [nM]
[12]	6.7	–
[13]	9.5	–
[14]	3.2	–
[15]	1.3	–
[16]	6.6	–
[18]	–	624
[20]	–	> 10000
